Melting point, IC50 and IC20 data for six compounds are collected here from article PMC6539525, “Design, Synthesis, and Mechanism of Dihydroartemisinin–Coumarin Hybrids as Potential Anti-Neuroinflammatory Agents” (Molecules, 2019).

As a reminder, the melting point is the temperature, or range, at which the solid turns liquid. In general, IC50 refers to the concentration that gives 50% inhibition. As usually defined, the IC20 is the point of the concentration-response curve where the effect stands at 20%.

Where two headings read alike, the source gives them in different places.

For one series, the system named is MDA-MB-231 cells. Kind of series: MTT cytotoxicity in MDA-MB-231 cells. The note with it: Homo sapiens. Format: cell-based. As for the experimental part: (§1) As the anti-neuroinflammatory agents for cancer patients, all newly synthesized compounds were evaluated in vitro for antitumor activity against human breast cancer cell line MDA-MB-231, colorectal cancer cells HT-29 and HCT-116, and lung cancer cell line A549 by using the standard MTT method, respectively. Doxorubicin (DOX) and DHA were used as the reference standard. Additionally, owing to the rapid proliferation, the tumor cells actually was always in hypoxia condition. Therefore, the in vitro cytotoxicity was evaluated in two different conditions (hypoxia and normoxia).
(§2) After recovery, the cells were cultured in 96-well plates for 24 h at 37 °C in a humidified atmosphere with 95% air and 5% CO2. After treated with different tested compounds, the hypoxia groups were placed in a sealed hypoxia incubator chamber (Stemcell Technologies, Inc., Vancouver, BC, Canada) filled with 5% CO2 and 95% N2 for 24 h, and then transferred to the incubator chamber filled with air for 72 h. On the contrary, the normoxia groups were cultured under air condition for 96h.
(§3) Cancer cells HT-29 (Human Colorectal Adenocarcinoma cell line), MDA-MB-231 (Human Breast Cancer cell line), HCT-116 (Human Colorectal Carcinoma cell line), and A549 (Human Lung Adenocarcinomic cell line) were from ATCC.
(§4) When the adherent cells reached 80% confluence, the culture medium was discarded. The cells were digested by trypsin and collected after centrifugation. The fresh culture medium was gently blown into it to form single-cell suspension. Cell suspension will be diluted to 1.5–3 × 10^4 cells/mL. Each hole of 96-well plates was added 100 μL cell suspension and incubated for 24 h (5% CO2; 37 °C). Then the holes were added different concentrations of tested compounds. The early screening concentration is set to 100 μM, 50 μM, 25 μM, 12.5 μM, and 6.25 μM. Three replicates were made for each concentration of the tested compounds. After the cells were grown for 96h, 20 μL MTT (5 mg/mL) was added to each well and incubated for 4 h. The medium was discarded and each well was added 100 μL DMSO to dissolve the formazan blue. Absorbance was measured at 570 nm with a microplate reader (Synergy-HT, BioTek Instruments, Winooski, VT, USA).
(§5) Hypoxia condition: The cells were treated with different concentration of tested compounds, placed in hypoxia chamber (Catalog Number 27310, Stemcell Technologies, Inc., Vancouver, BC, Canada), and incubated for 24 h ([…]; 37 °C). Then the cells were placed in normoxia condition (5% CO2; 37 °C) and incubated for 72 h.

The next series concerns HCT-116 cells. Kind of series: MTT cytotoxicity in HCT-116 cells. The note with it: Homo sapiens. Format: cell-based. As for the experimental part:
as §1, §2, §3, §4, §5

The test system of another series is HT-29 cells. The series is described as follows: MTT cytotoxicity in HT-29 cells. The format is cell-based, Human. The note with it: Homo sapiens, MTT. As for the experimental part: as §1
After recovery, the cells were cultured in 96-well plates for 24 h at 37 °C in a humidified atmosphere with 95% air and 5% CO2. After treated with different tested compounds, the hypoxia groups were placed in a sealed hypoxia incubator chamber (Stemcell Technologies, Inc., Vancouver, BC, Canada) filled with 5% CO2 and 95% N2 for 24 h, and then transferred to the incubator chamber filled with air for 72 h. […]
as §3
as §4, with “After the cells were grown for 96h, 20 μL MTT (5 mg/mL) was added to each well and incubated for 4 h.” left out, “USA). […]” for “USA).”

A short description of series [1]: MTT cytotoxicity in N9 cells. The format is cell-based, murine. The note with it: mouse, N9 microglial cells, cytotoxic activity. As to the method:
(§6) The anti-neuroinflammatory activity of DCH was evaluated and then the representative compounds were selected for the further study. […] In addition, in order to exclude the death influence, MTT-IC20 of all the compounds were measured. […] The exact reason was still unclear, but we supposed that it might be related to the homeostasis of cells. The tumor cells actually were always in hypoxia condition, in which DCH could promote the cytotoxic activity against tumor cells. In brief, DCH could reduce the release of NO caused by LPS-induced microglial cells.
as §4
(§7) N9 cells, which were in the logarithmic phase, were incubated for 24 h by adherent culture. Subsequently, the medium was changed to new one without serum. The cells were treated with different concentration of tested compounds. After specific time in the LPS condition, the supernatants were collected and analyzed.

Series [2] concerns NO release of LPS-induced microglial N9 cells. Kind of series: Inhibition of NO release in LPS-induced N9 cells (Griess). To be noted: Mus musculus, 1 μg/mL LPS for 48 h, NO level in medium. Format: cell-based, murine. As to the method:
as §6, §7
The nitrite levels in medium were determined by Griess reaction. The absorbance was measured at 540 nm using a microplate reader.
(Nitrite, measured by Griess reagent, commonly stands in for NO production.)

In another series the test system is A549 cells. Kind of series: MTT cytotoxicity in A549 cells. Format: cell-based. The note with it: Homo sapiens. As to the method:
as §1, §2, §3, §4, §5

Setting [3] is: MDA-MB-231, hypoxia 24 h then normoxia 72 h, read-out: IC50 MDA-MB-231 Hypoxia.
The mark [4] stands for this setting: MDA-MB-231, normoxia 96 h, read-out: IC50 MDA-MB-231 Normoxia.
Where [5] appears, read: HCT-116, hypoxia 24 h then normoxia 72 h, read-out: IC50 HCT-116 Hypoxia.
[6] abbreviates: HCT-116, normoxia 96 h, read-out: IC50 HCT-116 Normoxia.
Setting [7] is: HT-29, hypoxia 24 h then normoxia 72 h, read-out: IC50 HT-29 Hypoxia.
Setting [8] is: HT-29, normoxia 96 h, read-out: IC50 HT-29 Normoxia.
Where [9] appears, read: A549, hypoxia 24 h then normoxia 72 h, read-out: IC50 A549 Hypoxia.
Where [10] appears, read: A549, normoxia 96 h, read-out: IC50 A549 Normoxia.

`C[C@H]1[C@@H](OCCc2cn(Cc3cc4cc(Cl)cc(Cl)c4oc3=O)nn2)O[C@@H]2O[C@@]3(C)CC[C@H]4[C@H](C)CC[C@@H]1[C@@]24OO3` [2d, 6,8-dichloro-3-((4-(2-((10S)-dihydroartemisininoxy)ethyl)-1H-1,2,3-triazol-1-yl)-methyl)-2H-1-chromen-2-one] showed a melting point of 101 to 103 °C. Further, the IC50 in the series on MDA-MB-231 cells (setting [3]) worked out at 47.9 µM. Also, in the series with MDA-MB-231 cells (setting [4]), the IC50 worked out at 88.5 µM. Moreover, the IC50 in the series on HCT-116 cells (setting [5]) came out at 46.5 µM. The IC50 with HCT-116 cells (setting [6]) is 53.2 µM. Also, the IC50 with HT-29 cells (setting [7]) worked out at 30.8 µM. In addition, the IC50 with HT-29 cells (setting [8]) worked out at 19.5 µM. Besides, the IC20 in series [1] was over 10 µM. Further, half-maximal inhibition in series [2] (IC50) was put at 1.35 µM. Besides, in the series with A549 cells (setting [9]), the IC50 stood at 69.7 µM. Besides, the IC50 in the series on A549 cells (setting [10]) was 96.5 µM.

`C[C@H]1[C@@H](OCCc2cn(Cc3cc4cc(Br)cc(Br)c4oc3=O)nn2)O[C@@H]2O[C@@]3(C)CC[C@H]4[C@H](C)CC[C@@H]1[C@@]24OO3` [2e, 6,8-dibromo-3-((4-(2-((10S)-dihydroartemisininoxy)ethyl)-1H-1,2,3-triazol-1-yl)-methyl)-2H-1-chromen-2-one] came in with a melting point of 93 to 95 °C. In the series on MDA-MB-231 cells (setting [3]), the IC50 was determined as 44.1 µM. Also, the IC50 in the series on MDA-MB-231 cells (setting [4]) is over 100 µM. Also, the IC50 in the series on HCT-116 cells (setting [5]) was determined as 86.5 µM. In addition, the half-maximal inhibitory concentration (IC50) with HCT-116 cells (setting [6]) worked out at 94.2 µM. The IC50 in the series with HT-29 cells (setting [7]) came out at 13.9 µM. Further, the IC50 with HT-29 cells (setting [8]) is 38.5 µM. Moreover, the 20% effect concentration (IC20) in series [1] was over 10 µM. Further, half-maximal inhibition in series [2] (IC50) required 0.94 µM. The IC50 in the series on A549 cells (setting [9]) is 79.4 µM. Besides, the concentration for half-maximal inhibition (IC50) in the series with A549 cells (setting [10]) was over 100 µM.

As for `Cc1cc(C)c2c(OCc3cn(CCO[C@H]4O[C@@H]5O[C@@]6(C)CC[C@H]7[C@H](C)CC[C@@H]([C@H]4C)[C@@]57OO6)nn3)cc(=O)oc2c1` [5l], the melting point lay within 111 to 113 °C. Further, the IC50 in the series on MDA-MB-231 cells (setting [3]) was over 100 µM. The IC50 in the series on MDA-MB-231 cells (setting [4]) is over 100 µM. Besides, in the series on HCT-116 cells (setting [5]), the IC50 is over 100 µM. Further, the half-maximal inhibitory concentration (IC50) in the series with HCT-116 cells (setting [6]) was over 100 µM. Further, in the series on HT-29 cells (setting [7]), the IC50 amounted to 3.76 µM. Moreover, the IC50 in the series on HT-29 cells (setting [8]) was found to be 2.78 µM. In addition, the IC20 in series [1] amounted to 7.13 µM. Also, half-maximal inhibition in series [2] (IC50) was put at 3.36 µM. Also, the IC50 in the series on A549 cells (setting [9]) was over 100 µM. Moreover, the half-inhibitory concentration (IC50) with A549 cells (setting [10]) is over 100 µM.

For `Cc1cc(C)c2oc(=O)cc(OCc3cn(CCO[C@H]4O[C@@H]5O[C@@]6(C)CC[C@H]7[C@H](C)CC[C@@H]([C@H]4C)[C@@]57OO6)nn3)c2c1` [5m], the melting point lay within 111 to 113 °C. Further, the IC50 in the series with MDA-MB-231 cells (setting [3]) was determined as 13 µM. For the same compound, in the series on MDA-MB-231 cells (setting [4]), the IC50 turned out to be 14.2 µM. Also, the IC50 in the series on HCT-116 cells (setting [5]) amounted to 44.8 µM. Also, the IC50 in the series with HCT-116 cells (setting [6]) was 62.8 µM. The IC50 with HT-29 cells (setting [7]) stood at 5.89 µM. For the same compound, in the series with HT-29 cells (setting [8]), the half-inhibitory concentration (IC50) is 12.9 µM. Moreover, in series [1], the IC20 came out at 1.04 µM. For the same compound, inhibition in series [2] was half-maximal at 1.08 µM (IC50). Also, the IC50 in the series with A549 cells (setting [9]) turned out to be 1.28 µM. The IC50 in the series with A549 cells (setting [10]) is 2.67 µM.

On to `Cc1cccc2c(OCc3cn(CCO[C@H]4O[C@@H]5O[C@@]6(C)CC[C@H]7[C@H](C)CC[C@@H]([C@H]4C)[C@@]57OO6)nn3)cc(=O)oc12` [5o], for which the melting point was 84 to 86 °C. Besides, in the series with MDA-MB-231 cells (setting [3]), the IC50 amounted to 16.5 µM. Further, the IC50 in the series with MDA-MB-231 cells (setting [4]) is 37.4 µM. The IC50 with HCT-116 cells (setting [5]) came to 38.5 µM. For the same compound, the IC50 in the series with HCT-116 cells (setting [6]) was determined as 29.7 µM. The IC50 with HT-29 cells (setting [7]) turned out to be 21.2 µM. In addition, in the series with HT-29 cells (setting [8]), the IC50 was 16.1 µM. The IC20 in series [1] is over 10 µM. For the same compound, the IC50 in series [2] is 0.57 µM. The concentration for half-maximal inhibition (IC50) in the series on A549 cells (setting [9]) is 45.1 µM. For the same compound, the IC50 in the series with A549 cells (setting [10]) was 50.4 µM.

As to `C[C@H]1[C@@H](OCCCn2cc(COc3cc(=O)oc4ccccc34)nn2)O[C@@H]2O[C@@]3(C)CC[C@H]4[C@H](C)CC[C@@H]1[C@@]24OO3` [6j], the melting point was 74 to 76 °C. The IC50 in the series with MDA-MB-231 cells (setting [3]) worked out at 33.4 µM. The IC50 in the series on MDA-MB-231 cells (setting [4]) is 67.4 µM. Moreover, the IC50 in the series with HCT-116 cells (setting [5]) was determined as 32.8 µM. Besides, in the series with HCT-116 cells (setting [6]), the IC50 stood at 25.9 µM. Besides, in the series with HT-29 cells (setting [7]), the IC50 was 7.42 µM. In the series on HT-29 cells (setting [8]), the IC50 came out at 10.5 µM. Moreover, the IC20 in series [1] was over 10 µM. The IC50 in series [2] was 0.29 µM. In addition, the IC50 with A549 cells (setting [9]) was 49 µM. In the series with A549 cells (setting [10]), the IC50 is 53.4 µM.
